Values of other authors in PubChem BioAssay AID1259409 (Chemical Carcinogenesis Research Information System (CCRIS), 2018).
*1 amine or outer side, *2 acyl side, *3 side chain or, on linkers, in order; H or OH if unused. Where a SMILES comes first, the peptide text is derived from it. CO = O=C([*:1])[*:2]

Tested on: rodent chemically induced tumor inhibition, incidence and multiplicity
Assay: CCRIS tumor inhibitor studies
Conditions: Promoter: NONE USED

O=C(O)C[CH2][Ge](=[O])[O][Ge](=[O])[CH2]CC(=O)O
tumour outcome (control, treated, inhibition, significance) (Carcinogen: 1,2-DIMETHYLHYDRAZINE, 540-73-8, Dose [Inhibitor]: 0, 100 MG/KG BW 1/D FOR FIRST 8 WK THEN 1/2 D FOR 19 WK (STUDY DURATION: 27 WK), Route [Inhibitor]: GAVAGE, Species: RAT, Strain/Sex: WISTAR/MALE, Target Tissue: Type of Lesion: COLON: TUMOR, Dose [Carcinogen]: 20 MG/KG BW 1/WK FOR 15 WK): 36/36 (100%), 33/35 (94%), 6%, not significant
tumour outcome (control, treated, inhibition, significance) (Carcinogen: DIETHYLNITROSAMINE, 55-18-5, N-METHYL-N-NITROSOUREA, 684-93-5, N,N-DIBUTYLNITROSAMINE, 924-16-3, Carcinogen: DIETHYLNITROSAMINE, 55-18-5, N-METHYL-N-NITROSOUREA, 684-93-5, N,N-DIBUTYLNITROSAMINE, 924-16-3, Dose [Inhibitor]: 0, 0.05% IN DIET BEGINNING POST CARCINOGEN TREATMENT AND CONTINUING TO WK 40 (STUDY DURATION: 40 WK), Route [Inhibitor]: ORAL, Species: RAT, Strain/Sex: F344/MALE, Target Tissue: Type of Lesion: LUNG: ADENOMA, Dose [Carcinogen]: 100 MG/KG DIETHYLNITROSAMINE ONCE FOLLOWED BY 20 MG/KG N-METHYL-N-NITROSOUREA ON D 2, 5, 8 AND 11 THEN 0.05% N-N-DIBUTYL): 9/16 (56%), 1/19 (5%), 91%, p<0.001
tumour outcome (control, treated, inhibition, significance) (Carcinogen: DIETHYLNITROSAMINE, 55-18-5, N-METHYL-N-NITROSOUREA, 684-93-5, N,N-DIBUTYLNITROSAMINE, 924-16-3, Carcinogen: DIETHYLNITROSAMINE, 55-18-5, N-METHYL-N-NITROSOUREA, 684-93-5, N,N-DIBUTYLNITROSAMINE, 924-16-3, Dose [Inhibitor]: 0, 0.05% IN DIET BEGINNING POST CARCINOGEN TREATMENT AND CONTINUING TO WK 40 (STUDY DURATION: 40 WK), Route [Inhibitor]: ORAL, Species: RAT, Strain/Sex: F344/MALE, Target Tissue: Type of Lesion: LUNG: CARCINOMA, Dose [Carcinogen]: 100 MG/KG DIETHYLNITROSAMINE ONCE FOLLOWED BY 20 MG/KG N-METHYL-N-NITROSOUREA ON D 2, 5, 8 AND 11 THEN 0.05% N-N-DIBUTYL): 3/16 (19%), 0/19 (0%), 100%, not calculated
tumour outcome (control, treated, inhibition, significance) (Carcinogen: DIETHYLNITROSAMINE, 55-18-5, N-METHYL-N-NITROSOUREA, 684-93-5, N,N-DIBUTYLNITROSAMINE, 924-16-3, Carcinogen: DIETHYLNITROSAMINE, 55-18-5, N-METHYL-N-NITROSOUREA, 684-93-5, N,N-DIBUTYLNITROSAMINE, 924-16-3, Dose [Inhibitor]: 0, 0.05% IN DIET BEGINNING POST CARCINOGEN TREATMENT AND CONTINUING TO WK 40 (STUDY DURATION: 40 WK), Route [Inhibitor]: ORAL, Species: RAT, Strain/Sex: F344/MALE, Target Tissue: Type of Lesion: THYROID: ADENOMA, Dose [Carcinogen]: 100 MG/KG DIETHYLNITROSAMINE ONCE FOLLOWED BY 20 MG/KG N-METHYL-N-NITROSOUREA ON D 2, 5, 8 AND 11 THEN 0.05% N-N-DIBUTYL): 8/16 (50%), 2/19 (11%), 78%, p<0.02
tumour outcome (control, treated, inhibition, significance) (Carcinogen: DIETHYLNITROSAMINE, 55-18-5, N-METHYL-N-NITROSOUREA, 684-93-5, N,N-DIBUTYLNITROSAMINE, 924-16-3, Carcinogen: DIETHYLNITROSAMINE, 55-18-5, N-METHYL-N-NITROSOUREA, 684-93-5, N,N-DIBUTYLNITROSAMINE, 924-16-3, Dose [Inhibitor]: 0, 0.05% IN DIET BEGINNING POST CARCINOGEN TREATMENT AND CONTINUING TO WK 40 (STUDY DURATION: 40 WK), Route [Inhibitor]: ORAL, Species: RAT, Strain/Sex: F344/MALE, Target Tissue: Type of Lesion: THYROID: CARCINOMA, Dose [Carcinogen]: 100 MG/KG DIETHYLNITROSAMINE ONCE FOLLOWED BY 20 MG/KG N-METHYL-N-NITROSOUREA ON D 2, 5, 8 AND 11 THEN 0.05% N-N-DIBUTYL): 2/16 (13%), 1/19 (5%), 62%, not calculated
tumour outcome (control, treated, inhibition, significance) (Carcinogen: DIETHYLNITROSAMINE, 55-18-5, N-METHYL-N-NITROSOUREA, 684-93-5, N,N-DIBUTYLNITROSAMINE, 924-16-3, Carcinogen: DIETHYLNITROSAMINE, 55-18-5, N-METHYL-N-NITROSOUREA, 684-93-5, N,N-DIBUTYLNITROSAMINE, 924-16-3, Dose [Inhibitor]: 0, 0.05% IN DIET BEGINNING POST CARCINOGEN TREATMENT AND CONTINUING TO WK 40 (STUDY DURATION: 40 WK), Route [Inhibitor]: ORAL, Species: RAT, Strain/Sex: F344/MALE, Target Tissue: Type of Lesion: URINARY BLADDER: CARCINOMA, Dose [Carcinogen]: 100 MG/KG DIETHYLNITROSAMINE ONCE FOLLOWED BY 20 MG/KG N-METHYL-N-NITROSOUREA ON D 2, 5, 8 AND 11 THEN 0.05% N-N-DIBUTYL): 1/16 (6%), 0/19 (0%), 100%, not calculated
tumour outcome (control, treated, inhibition, significance) (Carcinogen: DIETHYLNITROSAMINE, 55-18-5, N-METHYL-N-NITROSOUREA, 684-93-5 N,N-DIBUTYLNITROSAMINE, 924-16-3, Carcinogen: DIETHYLNITROSAMINE, 55-18-5, N-METHYL-N-NITROSOUREA, 684-93-5 N,N-DIBUTYLNITROSAMINE, 924-16-3, Dose [Inhibitor]: 0, 0.05% IN DIET BEGINNING POST CARCINOGEN TREATMENT AND CONTINUING TO WK 40 (STUDY DURATION: 40 WK), Route [Inhibitor]: ORAL, Species: RAT, Strain/Sex: F344/MALE, Target Tissue: Type of Lesion: URINARY BLADDER: PAPILLOMA, Dose [Carcinogen]: 100 MG/KG DIETHYLNITROSAMINE ONCE FOLLOWED BY 20 MG/KG N-METHYL-N-NITROSOUREA ON D 2, 5, 8 AND 11 THEN 0.05% N-N-DIBUTYL): 4/16 (25%), 1/19 (5%), 80%, not calculated

CC(C)[C@H](NC(=O)[C@H](CCCN=C(N)N)NC(=O)N[C@@H](Cc1ccccc1)C(=O)O)C(=O)N[C@H](C=O)CCCN=C(N)N ({Phe-CO}-Arg-Val-Arg-aldehyde)
tumour outcome (control, treated, inhibition, significance) (Carcinogen: 1,2,3,4,5,6-HEXACHLOROCYCLOHEXANE, 319-84-6, Dose [Inhibitor]: 0.1% IN DIET FOR 12 WK POST CARCINOGEN TREATMENT (STUDY DURATION: 48 WK), Route [Inhibitor]: ORAL, Species: MOUSE, Strain/Sex: DDY/MALE, Target Tissue: Type of Lesion: LIVER: NODULAR HYPERPLASIA, Dose [Carcinogen]: 500 PPM IN DIET FOR 24 WK): 1/13 (7%), 2/15 (13%), -86%, not significant
tumour outcome (control, treated, inhibition, significance) (Carcinogen: N-BUTYL-N-(4-HYDROXY-BUTYL)NITROSAMINE, 3817-11-6, Dose [Inhibitor]: 0.1% IN DIET FOR 32 WK POST CARCINOGEN TREATMENT (STUDY DURATION: 40 WK), Route [Inhibitor]: ORAL, Species: MOUSE, Strain/Sex: ICR/MALE, Target Tissue: Type of Lesion: URINARY BLADDER: CANCER, Dose [Carcinogen]: 0.05% IN DRINKING WATER FOR FIRST 8 WK THEN FED BASAL DIET CONTAINING INHIBITOR): 1/13 (8%), 3/15 (20%), -150%, not significant
tumour outcome (control, treated, inhibition, significance) (Carcinogen: N-BUTYL-N-(4-HYDROXY-BUTYL)NITROSAMINE, 3817-11-6, Dose [Inhibitor]: 0.1% IN DIET FOR 32 WK POST CARCINOGEN TREATMENT (STUDY DURATION: 40 WK), Route [Inhibitor]: ORAL, Species: MOUSE, Strain/Sex: ICR/MALE, Target Tissue: Type of Lesion: URINARY BLADDER: PAPILLARY OR NODULAR HYPERPLASIA, Dose [Carcinogen]: 0.05% IN DRINKING WATER FOR FIRST 8 WK THEN FED BASAL DIET CONTAINING INHIBITOR): 4/13 (31%), 8/15 (53%), -71%, not significant
tumour outcome (control, treated, inhibition, significance) (Carcinogen: URETHANE, 51-79-6, Dose [Inhibitor]: 11 INJECTIONS (100 UG/G BW FOR EACH) AT 12 HR INTERVALS FROM 0-120 HR AFTER URETHANE TREATMENT (STUDY DURATION: 5 MO), Route [Inhibitor]: INTRAPERITONEAL, Species: MOUSE, Strain/Sex: ICR/JCI/FEMALE, Target Tissue: Type of Lesion: LUNG: TUMOR, Dose [Carcinogen]: 1.0 MG/G BW ONCE): 49/53 (92%), 38/46 (83%), 10%, not significant
tumour outcome (control, treated, inhibition, significance) (Carcinogen: URETHANE, 51-79-6, Dose [Inhibitor]: 11 INJECTIONS (100 UG/G BW FOR EACH) AT 12 HR INTERVALS FROM 240-360 HR AFTER URETHANE TREATMENT (STUDY DURATION: 5 MO), Route [Inhibitor]: INTRAPERITONEAL, Species: MOUSE, Strain/Sex: ICR/JCI/FEMALE, Target Tissue: Type of Lesion: LUNG: TUMOR, Dose [Carcinogen]: 1.0 MG/G BW ONCE): 49/53 (92%), 34/45 (76%), 17%, p<0.05

ClC(Cl)(Cl)Cl
tumour outcome (control, treated, inhibition, significance) (Carcinogen: 1,2-DIMETHYLHYDRAZINE, 540-73-8, Dose [Inhibitor]: 0, 1.5 ML/KG BW IN CORN OIL ADMINISTERED 2 HR PRIOR TO EACH CARCINOGEN DOSE (STUDY DURATION: 8 MO), Route [Inhibitor]: GAVAGE, Species: RAT, Strain/Sex: BD6/MALE, Target Tissue: Type of Lesion: INTESTINE: TUMOR, Dose [Carcinogen]: 20 MG/KG BW 1/WK FOR 20 WK): 100%, 0%, 100%, not calculated
